The values below come from patent US20050096370A1, “Method for inhibiting tumor angiogenesis and tumor growth” (Bizbiotech Co., Ltd., priority 2003, published 2005).

For one assay, the system named is VEGF. Kind of assay: VEGF protein ELISA in Hep3B cell-conditioned medium. The format is cell-based, human. Particulars: Hep3B cells, hypoxic, 24 hours, versus untreated hypoxic cells (P<0.001). How it is done:
FIG. 3 is a histogram showing the amount of VEGF protein. […] The VEGF concentrations were quantified by comparison with a series of VEGF standard samples included in the assay kit. VEGF level in each experiment was measured twice. Bars represent the mean of four separate experiments with the 95% confidence interval. * denotes statistical significance compared to control supernatants from cells cultured under normoxic conditions (P<0.001); # denotes statistical significance compared to control supernatants from cells cultured under hypoxic conditions (P<0.00 1).
Immunoblotting was used to detect HIF-1 protein in cultured cells, as described (Chun et al., Biochem Pharmacol 2001 61:947-954). […] To quantify mRNAs for HIF-1α and HIF-1-regulated genes, we performed a highly sensitive, semi-quantitative reverse transcription-polymerase chain reaction (RT PCR), as described previously (Chun et al., J Cell Sci 2001 114:4051-4061). […] P-actin mRNA was measured as a PCR control. […] To assess whether the VEGF mRNA levels affected levels of VEGF protein secreted into the medium, we measured VEGF protein levels in Hep3B cell-conditioned medium. […] VEGF levels in the conditioned media were quantified by using the Quantikine human VEGF Immunoassay kit (R&D Systems, Minneapolis, Minn.) according to the manufacturer's recommended protocol. […]

In the next assay the test system is HIF-1α and VEGF. Kind of assay: HIF-1α and VEGF protein immunoblot of Hep3B xenograft tumor lysates. It is filed as in vivo, nude mice. The settings on record: Hep3B xenografts, 30 μg/g daily i.p. 2 weeks. Here is the method:
Male nude mice were injected subcutaneously in the flank with 5×10^6 viable Hep3B cells. […] After the last treatment, the mice were euthanized, the tumors removed and lysates prepared for immunoblotting.
Male nude mice were injected subcutaneously in the flank with 5×10^6 viable Hep3B cells. […] After the last treatment, the mice were euthanized, the tumors removed and lysates prepared for immunoblotting. Tumor lysates from vehicle-treated mice (C) and from. […] The antigen-antibody-protein A complexes were washed extensively with the lysis buffer, the immunocomplexes were eluted by boiling for 3 minutes in a sample buffer containing 2% SDS and 10 mM dithiothreitol and subjected to SDS-PAGE, and then immunoblotted using a rat anti HIF-1α antibody developed previously (Chun et al., Biochem J 2002 362:71-79). β-actin protein was measured as an internal standard. VEGF in tumor tissue was detected using a mouse monoclonal anti-VEGF (SantaCruz Biotechnology Inc., Santa Cruz, Calif.) at a dilution of 1:1000, followed by incubation with a horseradish peroxidase-conjugated anti-mouse antiseruni (Zymed Laboratories Inc.).

For `OCc1ccc(-c2nn(Cc3ccccc3)c3ccccc23)o1` [YC-1, 3-(5′-hydroxymethyl-2′-furyl)-1-benzylindazole], the “VEGF protein level in medium” value in the assay on VEGF is recorded as “decreased in a dose-dependent manner”. In addition, in the assay with HIF-1α and VEGF, the “level of HIF-1α protein expression in tumors versus vehicle” value is given as “markedly lower” and the “level of VEGF protein expression in tumors versus vehicle” value is “markedly lower”.
